Experiment: PAMPA passive permeability
Type: in vitro ADME
Conditions: pH 7.4

Permeability (PAMPA, Pe): high permeability
SMILES: CCCCCCOc1ccc(C(=O)CCN(C)C)c2ccccc12 [13{1}]

Reference: publication PMC2753520 (Journal of medicinal chemistry, 2009)
